These compounds were tested against Mitogen-activated protein kinase 1 (Homo sapiens, UniProt P28482) (assay: Inhibitory activity against human ERK2).
Chain of Mitogen-activated protein kinase 1 (P28482 whole entry): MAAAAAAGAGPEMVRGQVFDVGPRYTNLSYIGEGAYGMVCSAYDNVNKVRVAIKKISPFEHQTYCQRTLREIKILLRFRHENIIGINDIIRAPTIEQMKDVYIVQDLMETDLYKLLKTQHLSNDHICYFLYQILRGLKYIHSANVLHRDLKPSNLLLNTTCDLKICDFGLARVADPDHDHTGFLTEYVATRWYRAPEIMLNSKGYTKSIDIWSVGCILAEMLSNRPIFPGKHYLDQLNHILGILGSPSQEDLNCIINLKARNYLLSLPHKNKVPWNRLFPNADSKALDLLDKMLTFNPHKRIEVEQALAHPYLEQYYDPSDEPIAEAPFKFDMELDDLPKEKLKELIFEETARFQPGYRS

In order of falling IC50:
1. Nc1nn(CCO)c2nnc(-c3c(-c4ccccc4)nn4ccccc34)cc12  5100 nM
2. Cn1nc(N)c2cc(-c3c(-c4ccccc4)nn4ccccc34)nnc21  1400 nM
3. C=CCn1nc(N)c2cc(-c3c(-c4ccccc4)nn4ccccc34)nnc21  560 nM

Reference: ChEMBL document CHEMBL1147784, “Crystal structure of human ERK2 complexed with a pyrazolo[3,4-c]pyridazine derivative” (Bioorg Med Chem Lett, 2006)
